From PubChem BioAssay AID652005 (Sanford-Burnham Center for Chemical Genomics, 2013)
The source made the active and inactive calls. How the calls were made is not given here.

Each molecule was assayed against Low molecular weight phosphotyrosine protein phosphatase (Homo sapiens) (UniProt P24666) (assay: LMPTP phosphatase inhibitors, dose response, orthogonal assay, biochemical, absorbance (AID 652005)). Conditions: recombinant LMPTP, absorbance-based phosphatase activity.
Chain of Low molecular weight phosphotyrosine protein phosphatase (Homo sapiens) (P24666 whole entry, looked up): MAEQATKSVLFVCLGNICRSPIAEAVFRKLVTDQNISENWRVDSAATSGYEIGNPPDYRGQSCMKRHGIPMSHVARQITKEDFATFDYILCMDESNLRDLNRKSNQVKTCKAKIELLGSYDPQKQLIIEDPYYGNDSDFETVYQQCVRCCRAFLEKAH

SMILES | IC50
O=C(/C=C/c1ccc(Cl)cc1)NC(=S)Nc1ccc(C(=O)O)cc1 | 15 µM
Cc1csc2nc(O)c(C(=O)NCc3ccc4c(c3)OCO4)c(=O)n12 | > 80 µM (inactive)
O=C(NCc1ccc2c(c1)OCO2)c1c(O)nc2sccn2c1=O | > 80 µM (inactive)
CC(C1SC(=S)NC1=O)C1SC(=S)NC1=O (stereo not drawn) | > 80 µM (inactive)
O=c1[nH]c2ccccc2n1C1CCN(Cc2ccc(-c3[nH]c4cc5ncnc5cc4nc3-c3ccccc3)cc2)CC1 | > 80 µM (inactive)

Further lines, results first:

IC50 | SMILES
> 80 µM (inactive) | O=C(N=Nc1c(O)[nH]c2ccc(F)cc12)c1ccc(NS(=O)(=O)c2cccs2)cc1
inactive | CCN(c1ccccc1)S(=O)(=O)c1cc(C(=O)O)ccc1C
> 80 µM (inactive) | CCc1ccc(C=C2SC(=S)N(CCCC(=O)Nc3ccc(C(=O)O)cc3)C2=O)cc1
